From patent US9597324B2, “Treatment of CNS disorders associated with mutations in genes encoding lysosomal enzymes” (Amicus Therapeutics, Inc., priority 2005, dated 2017)

Tests used:
[1] = test system: N370S Gaucher fibroblasts (DMN89.15); experiment: Gba / LAMP-1 lysosomal staining (confocal microscopy) in N370S Gaucher fibroblasts; type: cell-based, human; conditions: for Gba staining localization: N370S Gaucher fibroblasts; for Amount of Gba in the lysosomes: dual Gba/LAMP-1 staining vs untreated control; for Lysosome staining pattern for Gba and LAMP-1: dual staining vs untreated control
Protocol: N370S fibroblasts (DMN89.15) were cultured in DMEM with 10% FBS and 1% penn/strep at 37 C with […]. Wild-type fibroblast cell line CRL-2097 form a healthy individual was used as a control. Cells were sub-cultured from 10 cm plates into 12-well plates with cover slips. Cells from one confluent 10 cm plate were diluted in 38 ml of culture medium.
C-benzyl-isofagomine-control (secondary antibody only); untreated; 0.03 μM; 0.1 μM; 0.3 μM; 1.0 μM; 3.0 μM; and 10.0 μM.
Isofagomine-control (secondary antibody only); untreated; 10 μM; 30 μM; 100 μM; 1 nM; 3 nM; and 10 nM.
Cells were cultured for a total of about 6 days.
Cells were washed for 5 minutes in PBS, fixed for 15 minutes in 3.7% paraformaldahyde (in PBS), washed again for 5 minutes in PBS, and permeabilized with 0.5% saponin for 5 minutes. Cells were then washed with PBS containing 0.1% saponin, treated for 5 minutes with fresh 0.1% sodium borohydride/0.01% saponin, and washed 3 times with PBS with 0.1% saponin/1% BSA for 5 minutes each.
Cells were incubated for 1 h with 500 μl of primary anti-Gba (1:200) or anti-LAMP-1 (1:200; BD Pharmingen, Cat. No. 555798) antibody solution in PBS with 1% BSA. Lysosomal staining using LysoTracker® Red (Cambrex, East Rutherford, N.J.) was performed according to the manufacturer's instructions. Following incubation, cells were washed 3 times in 1% BSA containing 0.1% saponin in PBS, followed by incubation with the secondary antibody solution (1:500; anti-rabbit […] for anti-Gba and anti-mouse IgG AlexaFluor594 for anti-LAMP-1). Cells were mounted onto coverslips, sealed, and immediately viewed.
Cells were visualized using a confocal microscope. The red and green channel gains were set to 6 and the laser power was optimized using the intensity window, and were not adjusted for the rest of the experiment. All slides were analyzed at the same sitting and all images were gathered without any zoom using the 20× and 60× lens, the small pinhole, optimal pixel size, an average of 2 scans, and red and green channels were acquired simultaneously as in all previous experiments.

human L444P mutated Gba = experiment: Gba activity in brain and organs of L444P transgenic mice treated with chaperone in drinking water (incl. washout study); type: in vivo, mouse; conditions: for Gba activity in brain: about 10 mg/kg/day in drinking water
Protocol: L444P is a mutation associated with Types 2 and 3 Gaucher disease. […] Concomitant glucosylceramide synthase disruption is necessary, since previously made L444P transgenic mice died within 3 days of birth due to impaired permeability barrier function in the epidermis.
In addition, mice in a “washout” period of 2 weeks of non-chaperone treatment following 4 weeks of treatment were also evaluated for reversion of surrogate markers back to levels seen in untreated controls.
Mice were administered isofagomine or C-benzyl-isofagomine in their drinking water, ad libitum. Estimated daily dosage based on the volume of water consumed is about 10 mg/kg/day.
[…] Brian tissue is freshly harvested (blood washed away with PBS), or thawed from frozen stock. Tissue is minced tissue and homogenized on ice in 200-500 μl McIlvaine (MI) buffer (0.25% sodium taurocholate, 0.1% Triton x-100 in 0.1M citrate and 0.2M phosphate buffer, pH 5.2), and centrifuged at 10,000×g. The supernatant is collected and may be frozen at this step.
About 1-10 μl of supernatant from the brain tissue homogenates is added to a clear 96-well plate for the Micro BCA Protein Assay (Pierce, cat #23235) to quantitate the amount of total protein according to the manufacturer's protocol. As a negative control, another 10 μl is added to a black plate, mixed with 10 μl of 2.5 mM CBE (2.7 mg Conduritol B Epoxide in 6.7 ml buffer), an inhibitor of Gba activity, and left at room temperature (RT) for 30 minutes. 50 μl of 3 mM 4-methal Umbelliferal beta-D-glucoside (4-MU-beta-D-glucoside; made fresh, powder is dissolved in 0.2 ml of DMSO, then q.s. to proper volume with MI buffer), a Gba substrate, is then added, and the black plate is further incubated at 37° C. for 1 hr. After incubation, 10 μl of supernatant is added to a second black plate, mixed with 10 μl of MI buffer and 50 μl […] of Gba substrate 4-MU-beta-D-glucoside, and incubated at 37° C. for 1 hr. The reaction is then stopped by adding 70 μl 0.2 M glycine, pH 10.8. The plate is read in a plate-reader (Victor2 1420 multilabel counter; Wallac) at F460.
Relative […] is determined by the following equation: F460 without CBE−F460 with CBE)/(A550 sample−A550 buffer)
F460 reading is converted into nmole 4-MU based on 4-MU standard curve and A550 is converted into mg of protein based on the protein standard curve. One unit of Gba activity is defined as nmole of 4-MU released in one hour.
To determine if and in what time frame the effects of drinking water dosed AT2101 on L444P mice regress after cessation of the treatment, a washout study was performed. Nine male 3 month old L444P mice were dosed at about 10 mg/kg/day for 4 weeks with an equal number of mice untreated as a control.

[2] = target: T1, human mutant α-Gal A (R301Q) (Homo sapiens, UniProt P06280, R301Q); conditions: neutral pH; cited from earlier work
T1 sequence (P06280 32-429 R301Q): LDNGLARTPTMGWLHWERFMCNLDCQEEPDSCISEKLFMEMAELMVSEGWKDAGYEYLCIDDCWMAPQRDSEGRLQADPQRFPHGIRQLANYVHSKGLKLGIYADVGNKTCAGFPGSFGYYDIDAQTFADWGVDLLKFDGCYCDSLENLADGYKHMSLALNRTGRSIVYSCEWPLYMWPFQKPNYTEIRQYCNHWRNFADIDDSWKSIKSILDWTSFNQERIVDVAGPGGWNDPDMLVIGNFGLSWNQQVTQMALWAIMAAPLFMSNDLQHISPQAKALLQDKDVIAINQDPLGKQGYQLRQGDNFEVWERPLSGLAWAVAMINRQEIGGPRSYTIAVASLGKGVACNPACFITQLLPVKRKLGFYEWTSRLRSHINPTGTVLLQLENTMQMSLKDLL

[3] = test system: lymphoblasts established from Fabry patients with R301Q or Q279E mutations; conditions: cited from earlier work
mutant (R301Q) α-Gal A = target: T2, mutant (R301Q) α-Gal A (Homo sapiens, UniProt P06280, R301Q); conditions: oral administration, transgenic mice overexpressing mutant (R301Q) α-Gal A; cited from earlier work
T2 construct: host or cells: major organs of transgenic mice
T2 sequence (P06280 32-429 R301Q): T1 sequence (P06280 32-429 R301Q)

[4] = Detection of IFG in the CSF of treated monkeys; type: in vivo
Gaucher patient cells = conditions: cited from earlier work
[5] = N370S fibroblasts, 3.0 μl (so in the source)
[6] = after two weeks of treatment, data not shown
[7] = N370S fibroblasts, concentration not given

SMILES: OCC1C(Cc2ccccc2)NCC(O)[C@@H]1O (stereo partly shown) [C-benzyl-isofagomine]
- Gba staining localization ([1]; 3 μM, Gba staining only (FIG. 2N)): localize to lysosomes
- Amount of Gba in the lysosomes [1, 5]: increased
- Lysosome staining pattern for Gba and LAMP-1 [1, 5]: re-established a normal lysosome punctuate staining pattern
- Gba activity in brain (in words) (human L444P mutated Gba; [6]): trend toward increased activity
- Gba activity in lung (in words) (human L444P mutated Gba; [6]): trend toward increased activity
- Gba activity in spleen (in words) (human L444P mutated Gba; [6]): significant increased
- Gba activity in brain (in words) (human L444P mutated Gba; after two weeks of treatment, data not shown, listed as AT2206): trend toward increase

SMILES: OC[C@H]1NC[C@H](O)[C@@H](O)[C@H]1O [DGJ, 1-deoxygalactonojirimycin]
- In vitro stability of the mutant enzyme [2]: effectively increased
- Mutant enzyme activity in lymphoblasts [3]: enhanced
- Enzyme activity in major organs (mutant (R301Q) α-Gal A): substantially elevated

SMILES: OC[C@H]1CNC[C@@H](O)[C@@H]1O [isofagomine, (3R,4R,5R)-5-(hydroxymethyl)-3,4-piperidinediol]
- Detection in the CSF following treatment [4]: detected
- Gba staining localization ([1]; 30 μM, Gba staining only (FIG. 2M)): localize to lysosomes
- Amount of Gba in the lysosomes ([1]; N370S fibroblasts, 30.0 μM): increased
- Lysosome staining pattern for Gba and LAMP-1 ([1]; N370S fibroblasts, 30.0 μM): re-established a normal lysosome punctuate staining pattern
- Amount of Gba seen in the lysosome [1, 7]: increased
- Lysosomal staining pattern of the cells [1, 7]: restored a normal lysosomal staining pattern
- Gba activity in brain (human L444P mutated Gba; after 2 weeks of treatment, untreated about 1 U/mg): about 4.5 U/mg
- Gba activity in brain (human L444P mutated Gba; after 4 weeks of treatment, untreated about 1 U/mg): about 4.5 U/mg
- Gba activity in brain (human L444P mutated Gba; after 12 weeks of treatment, p<0.001): about 6 U/mg
- Gba activity in brain, washout study (in words) (human L444P mutated Gba; after 4 weeks of treatment at 10 mg/kg/day (FIG. 1B)): significantly elevated
- Gba activity in brain (in words) (human L444P mutated Gba; after as little as two weeks of treatment, persisted through 4-12 weeks (FIG. 1A)): Significant increase
- Rescue of Gba (Gaucher patient cells): rescue
